The source of these data is a melting point compilation (Tetko et al.; mined from patent text by program, amines drawn as free bases though some values may be those of a salt).

Broadly, the melting point is the temperature of the solid-liquid transition.

In the case of `COc1cccc([C@H]2O[C@H](CC(N)=O)C(=O)N(CC(C)(C)C)c3ccc(Cl)cc32)c1OC`, the melting point fell in the range of 170 to 172 °C. To `CC1CCNC(=C2C(=O)CC(C(C)C)CC2=O)N1` (stereo not drawn) belongs 71 to 83 °C; to `COc1ccc(-c2ccc(OC3SCC(OC(C)=O)C(OC(C)=O)C3OC(C)=O)cn2)cc1` (stereo not drawn), 208 °C; to `CS(=O)(=O)NS(=O)(=O)c1ccc(CCCl)cc1`, 149 to 151 °C. `OC1(c2ccc(OCc3ccccc3)c(OCc3ccccc3)c2)CCCN(Cc2ccccc2)C1` (stereo not drawn) showed a melting point of 80 °C. Molecule `CC1CCCN(c2ccc([N+](=O)[O-])cc2C(=O)c2ccc(Cl)cc2)C1` (stereo not drawn) gave a melting point of 112 °C. For `O=Cc1cn(-c2ccc(F)cc2)c2ccc(Cl)cc12` the value was 152 to 154 °C.

Regarding `NCc1ccc(C(=O)Nc2ccc(-n3nc(C(F)(F)F)cc3C(F)(F)F)cc2)c(Cl)c1`, the melting point lay within 90 to 93 °C. For `COc1cc(-c2cnc3[nH]cc(C(=O)C(=O)N(C)C)c3n2)cc(OC)c1OC` the value was 227 to 228 °C; for `CCOC(=O)c1c(C(F)(F)F)nc(C(F)(F)F)c(C(=O)O)c1OCC`, 115 to 117 °C. As for `COc1ccc(C(=CC#N)c2ccc3ccccc3c2)cc1OC`, the melting point was in the range of 121 to 123 °C.

Turning to `CC(=O)C(Cc1cc(O)c(O)c([N+](=O)[O-])c1)C(C)=O`, the melting point was in the range of 118 to 128 °C. For `Oc1ccccc1-c1c(Cl)cccc1Cl` the value was 100 to 103 °C. To `COc1cc2[nH]c(N(C)Cc3cccc(C4CCN(C)CC4)c3)nc(=O)c2c(C)c1OC` belongs 156 to 158 °C; to `O=C1c2ccccc2C(=O)N1OC1CCCC1`, 81.2 to 82.5 °C. `O=C1CCCN1CCn1c(=O)[nH]c2ncc(-c3ccc(-c4nc[nH]n4)cc3)nc21` returned a melting point of 300 to 301 °C. To `CNc1nc(-c2ccc(O)c(F)c2)cc2c(OC)cccc12` belongs 185 to 187 °C. In the case of `CCCCOCCOc1ccc(-c2ccc3c(c2)C=C(C(=O)Nc2ccc(S(=O)Cc4nccn4CCCC(=O)NC)cc2)CCN3CC(C)C)cc1` (stereo not drawn), the melting point lay in the range of 159 to 161 °C. `CC(C)(NC(=O)c1nc2ccc(NCCCN3CCC(OC(c4ccccc4)c4ccccc4)CC3)nn2n1)C(=O)O`: the melting point lay within 247 to 249 °C. In the case of `CC(=O)Nn1c(C)nc2cc(C(F)(F)F)ccc21`, the melting point is 214 to 216 °C.

In turn, `CCCCOc1ccc(-c2ccc([C@@]3(CC(=O)O)CCCCS3(=O)=O)s2)cc1` gave a melting point of 179 to 180 °C.

Regarding `Cc1cc(C2CC(C)(C)CC(C)(C)C2=O)ccc1F` (stereo not drawn), the melting point lay within 63 to 64 °C. In turn, `c1cc(Cc2nnn[nH]2)cc(OCc2ncc3ccccc3n2)c1` had a melting point of 129 to 131 °C. For the molecule `CCCN1CC=C(c2c[nH]c3ccc(OC)cc23)CC1`, the melting point came to 164 °C.

In turn, `CC(C)(O)CCOc1c(-c2ccc(S(N)(=O)=O)cc2)cnn(-c2ccc(F)c(F)c2)c1=O` gave a melting point of 181 °C.

In turn, `CN(C)CCN(C(=O)N(C)C)c1ccc(N)cn1` displayed a melting point of 118 to 119 °C. To `C=CCn1cc(C(=O)O)c(=O)c2cc(F)c(N3CCN(C)CC3)cc21` belongs 208 °C; to `CCCCCCCCCCCCCCCCCCOc1cc(OCCCOc2ccc(S(C)=O)cc2)cc(C(=O)OC)c1` (stereo not drawn), 86 to 88 °C; to `CC(C)(C)c1cc(Sc2nnc(NC(=N)N)s2)cc(C(C)(C)C)c1O`, 248 to 249 °C. For `O=C(Nc1ccc(CCN2C(=O)[C@H]3CCC[C@H]3N(C(=O)CN3C(=O)c4ccccc4C3=O)c3ccccc32)cc1)OCc1ccccc1` (relative stereo) the value was 152 to 154 °C; for `CCOc1cc(I)cc(OCC)c1OCC`, 44 to 46 °C.

Turning to `O=C1N(C2CCCCC2)CC(CN2CCC(O)(c3ccccc3)CC2)C1(c1ccccc1)c1ccccc1` (stereo not drawn), the melting point lay within 179 to 184 °C. For `CCC1(CC)OC(=O)Nc2ccc(Br)cc21` the value was 150 to 152 °C.

As for `Cc1cccc(-c2cn(C)cc(-c3cccc(C(F)(F)F)c3)c2=O)c1`, the melting point lay within 155 to 157 °C. `O=Cc1ccc(OCc2ccccc2)cc1OCc1ccccc1` showed a melting point of 80 to 81 °C. Regarding `CC(C)(C)C1OC1C(O)C1CCCCC1` (stereo not drawn), the melting point is 38 to 48 °C. Molecule `N#Cc1c(Br)c(-c2ccc(Cl)cc2)n(C(=O)c2ccccc2)c1Cl` yielded a melting point of 179 to 181 °C. `C/C=C(/C)c1ccc2c(c1)C(=O)N(c1ccc3c(ccn3C)c1)C2` showed a melting point of 144 to 145 °C. Molecule `O=P(O)(O)C1(P(=O)(O)O)Cc2ccccc2C1` registered a melting point of 55 to 57 °C.

As to `COc1ccc(N(C(=O)CN2C(=O)c3ccccc3C2=O)c2ccccc2)cc1`, the melting point amounted to 192 °C.

`COC(=O)C(C)(C)OCC#Cc1cc(Cl)ccc1NS(=O)(=O)c1cc(C)cc(C)c1` gave a melting point of 78 to 80 °C. Turning to `O=C(O)c1cc2c(s1)CCC2=O`, the melting point fell in the range of 195 to 196 °C. Turning to `CS(=O)(=O)Nc1nc(CCN2CCC(c3c[nH]c4ccccc34)CC2)cs1`, the melting point was 141 to 144 °C. To `O=C(O)c1ncn2c1CN=C(c1ccccc1Br)c1cc(F)ccc1-2` belongs 280 to 285 °C; to `COc1cccc2c(N3CCN(C[C@H]4COc5ccc6nc(C)ccc6c5O4)CC3)coc12`, 56 °C. Molecule `O=C(O)CCCCN1CCN(C2=Nc3ccccc3Sc3ccc(Cl)cc32)CC1` came in with a melting point of 220 to 221 °C. To `CC(C)(C)OC(=O)NCCc1ccc(O)cc1` belongs 61 to 62 °C; to `O=C(Nc1ccccc1)c1cccc(NC(=S)Nc2cc(Cl)cc(Cl)c2)c1`, 174 to 177 °C; to `C=C(c1ccc(Br)cc1)c1ccc(OC)cc1`, 91.2 to 92.6 °C. To `COC=NS(=O)(=O)c1cc(C(C)C)c(C#N)cc1C(C)C` belongs 130 to 132 °C. In turn, `CCOC(=O)C1=C(C)NC(=O)N(C(=O)OCC)C1c1cccc([N+](=O)[O-])c1Cl` (stereo not drawn) showed a melting point of 176 to 178 °C. Take `CC(=O)c1ccc(C2=CCC(C)CC2)cc1` (stereo not drawn): the melting point was in the range of 50 to 52 °C. With `CC(C)CCC(=O)N1C(=O)O[C@H](c2ccccc2)[C@@H]1C`, the melting point fell in the range of 76 to 77 °C.

In turn, `O=[N+]([O-])c1sc(-c2cccnc2)nc1Cl` yielded a melting point of 110 to 112 °C. For `O=c1c2ccccc2oc2cccnc12` the value was 184 to 185 °C; for `COC(=O)COC(=O)COc1ccc(-c2coc3cc(OCC(=O)OCC(=O)OC)ccc3c2=O)cc1`, 111 to 114 °C. To `Cc1cc(CCc2ccc(-c3ccc(C(F)(F)F)cc3)cc2)ccc1OCC(=O)O` belongs 174 to 176 °C. For `CN1CCc2c(-c3ccc(F)cc3)ccc([N+](=O)[O-])c2C1` the value was 140 to 143 °C; for `COc1ccc(-c2[nH]c3cn[nH]c(=O)c3c2Cl)cc1OC1CC1`, 293 to 294 °C. Take `COC(OC)C(CC#N)C(C)(C)S(=O)(=O)c1ccc(C)cc1` (stereo not drawn): the melting point amounted to 99 °C. For `CCc1cccc(C)c1NCN1CCOC1=O` the value was 56 to 57.5 °C. For `CCn1cc(C(=O)O)c(=O)c2cc(F)c(N3CCC(NC(=O)OC(C)(C)C)C3)c(C)c21` (stereo not drawn) the value was 184 to 188 °C. For `COc1ccc2cc([C@H](C)C(=O)OCC(=O)N3CCC(CCO[N+](=O)[O-])CC3)ccc2c1`, the melting point is 83 to 85 °C. To `CCc1cc(C)c(F)c(CC)c1-c1c(O)c(C)nn(C)c1=O` belongs 193 to 195 °C. In turn, `Cc1cccc2c(Cc3nc4c(F)c(F)cc(F)c4s3)cn(CC(=O)O)c12` yielded a melting point of 216 to 218 °C. On to `CCC(=O)O[C@@H]1[C@@H](c2ccccc2)Nc2c(ccn3c(C)c(C)nc23)[C@H]1OCCOC`, for which the melting point was in the range of 106 to 107 °C. For `COC(=O)c1ccnc(Nc2ccc(SC)cc2)c1` the value was 142 °C; for `CC1=CSC(n2ccc(OCc3ccc(C(F)(F)F)o3)cc2=O)N1C(=O)O` (stereo not drawn), 261 to 263 °C. `CC(=O)C(C)Nc1c(C)cc(C)c2nsnc12` (stereo not drawn) displayed a melting point of 209 to 211 °C. As to `CCOC(=O)C(CC)n1c(NC(=O)c2cccs2)nc2cc(C(=O)N(C)C3CCCCC3)ccc21` (stereo not drawn), the melting point lay in the range of 82 to 84 °C. On to `O=C(O)CCc1cn(Cc2ccc(Cl)cc2Cl)c2ccccc12`, for which the melting point is 134 to 136 °C. `Cc1nc(N2CCCCC2)ccc1N1CCCn2c1nc1c(Cl)ccc(C(OC(F)F)C(F)(F)F)c12` (stereo not drawn) yielded a melting point of 164 to 167 °C.

Consider `CC(C)N(C(C)C)S(=O)(=O)NC(=O)c1nsc2ccc(-n3c(=O)cc(C(F)(F)F)n(C)c3=O)cc12`, for which the melting point was determined as 214 °C. Regarding `CN1CCN(c2ccc(C#N)nn2)CC1`, the melting point amounted to 149 °C.

`CCOC(=O)C1CCN(c2nc(COc3ccc(COc4nn(-c5ccccc5)cc4C=O)cc3OC)c(C)s2)CC1` showed a melting point of 126 to 127 °C. In turn, `OCCCc1oc(-n2cncn2)nc1-c1ccc(Cl)cc1` yielded a melting point of 139 to 140 °C. To `Nc1ccccc1Cc1nc[nH]n1` belongs 134 to 136 °C; to `COC(=O)c1cnnc2c(C)cccc12`, 90 to 91 °C.

Regarding `CC(=O)N1C(=O)N(c2cc(Cl)cc(Cl)c2)C(=O)C1=Cc1ccc(C#N)cc1`, the melting point was determined as 212 °C. For `CCC1(CC)Cc2cc(O)c(Cl)c(Cl)c2C1=O` the value was 184 °C; for `Cc1ccnc(CSc2nc(C)cc(=O)[nH]2)c1`, 157 to 158 °C; for `COc1ccc(S(=O)(=O)Nc2cccnc2Nc2ccc(O)cc2)cc1`, 178 to 179 °C. Regarding `COc1ccc(C(=O)c2ccccc2)c([N+](=O)[O-])c1O`, the melting point is 137 to 139 °C.

`COc1cc2c(cc1OC)CC(C(=O)O)C2` gave a melting point of 133 to 135 °C. In turn, `COC(=O)c1ccc(CCNC(=O)C[C@H]2O[C@H](c3cccc(OC)c3OC)c3cc(Cl)ccc3N(CC(C)(C)CO)C2=O)cc1` came in with a melting point of 167 to 169 °C. For `CC(=O)c1ccc(S(=O)(=O)Nc2cccnc2Nc2ccccc2)cc1` the value was 171 to 173 °C. Consider `COc1cc(/C=C/CO)ccc1OCc1coc(-c2ccccc2)n1`, for which the melting point was 113 to 114 °C.

`CC(C)(C)OC(=O)N(CCOc1cccc2[nH]ccc12)Cc1ccccc1` displayed a melting point of 46 to 48 °C.
